Measurements as given in US9409887B2, “Mutant-selective EGFR inhibitors and uses thereof” (Celgene Avilomics Research, Inc., priority 2010, dated 2016).

Experiments:
[1] = target: EGFR-WT (Homo sapiens (Human), UniProt P00533); assay: Omnia biochemical assay, EGFR (WT) active enzyme; conditions: [EGFR-WT]=5 nM, [ATP]=15 uM, 30 min pre-incubation
From the text: (§1) Omnia Assay Protocol for Potency Assessment Against EGFR (WT) and EGFR (T790M/L858R) Active Enzymes
(§2) Below describes the biochemical assay protocol using EGFR-WT and EGFR-T790M/L858R.
(§3) The mechanics of the assay platform are best described by the vendor (Invitrogen, Carlsbad, Calif.) on their website at the following URL: www.invitrogen.com/content.cfm?pageid=11338 or www.invitrogen.com/site/us/en/home/Pro ducts-and-Services/Applications/Drug-Discovery/Target-and-Lead-Identification-and-Validation/KinaseBiology/KB-Misc/Biochemical-Assays/Omnia-Kinase-Assays.html.
(§4) Briefly, 10× stocks of EGFR-WT (PV3872) from Invitrogen and EGFR-T790M/L858R (40350) from BPS Bioscience, San Diego, Calif., 1.13×ATP (AS001A) and appropriate Tyr-Sox conjugated peptide substrates (KCZ1001) were prepared in 1× kinase reaction buffer consisting of 20 mM Tris, pH 7.5, 5 mM MgCl2, 1 mM EGTA, 5 mM β-glycerophosphate, 5% glycerol (10× stock, KB002A) and 0.2 mM DTT (DS001A). 5 μL of each enzyme were pre-incubated in a Corning (#3574) 384-well, white, non-binding surface microtiter plate (Corning, N.Y.) for 30 min. at 25° C. with a 0.5 μL volume of 50% DMSO and serially diluted compounds prepared in 50% DMSO. Kinase reactions were started with the addition of 45 μL of the ATP/Tyr-Sox peptide substrate mix and monitored every 71 seconds for 60 minutes at λex360/λem485 in a Synergy^4 plate reader from BioTek (Winooski, Vt.). At the conclusion of each assay, progress curves from each well were examined for linear reaction kinetics and fit statistics (R^2, 95% confidence interval, absolute sum of squares). Initial velocity (0 minutes to ˜30 minutes) from each reaction was determined from the slope of a plot of relative fluorescence units vs time (minutes) and then plotted against inhibitor concentration to estimate IC50 from log [Inhibitor] vs Response, Variable Slope model in GraphPad Prism from GraphPad Software (San Diego, Calif.).
(§5) [EGFR-WT]=5 nM, [ATP]=15 uM, [Y12-Sox]=5 uM (ATP KMapp˜12 uM); and [EGFR-T790M/L858R]=2.5 nM, [ATP]=20 uM, [Y12-Sox]=5 uM (ATP KMapp˜20 uM).

[2] = target: EGFR-T790M/L858R (Homo sapiens (Human), UniProt P00533, L858R/T790M); assay: Omnia biochemical assay, EGFR (T790M/L858R) active enzyme; conditions: for IC50: [EGFR-T790M/L858R]=2.5 nM, [ATP]=20 uM, 30 min pre-incubation; for Ratio WT/mutant: biochemical IC50, WT EGFR vs EGFR (T790M/L858R)
From the text: as §1, §2, §3, §4, §5

[3] = target: WT EGFR (A431 cells) (Homo sapiens (Human), UniProt P00533); assay: Phospho-EGFR signaling (immunoblotting, 1 hr) in A431 cells; assay type: cell-based; conditions: 1 hr compound, EGF stimulated, phospho-EGFR (Y1068)
Protocol: (§6) A431 human epidermoid carcinoma, H1975 human NSCLC and HCC827 human NSCLC adenocarcinoma cells were obtained from the American Type Culture Center (Manassas, Va.). A431 cells were grown in DMEM (Invitrogen, Carlsbad, Calif.) supplemented with 10% FBS (HyClone, South Logan, Utah) and 1% Penicillin-Streptomycin (P/S, Lonza, Walkersville, Md.). H1975 and HCC827 cells were grown in complete RPMI 1640 (Invitrogen) supplemented with 10% FBS and 1% P/S. All cells were maintained and propagated as monolayer cultures at 37° C. in a humidified 5% CO2 incubator.
(§7) All primary antibodies were obtained from Cell Signaling (Danvers, Mass.) and used at 1:1000. Secondary antibodies were used at 1:10,000. Goat anti-mouse IgG IRDye 800CW antibody was obtained from LiCor Biosciences (Lincoln, Nebr.) and goat anti-rabbit IgG Alexa Fluor 680 was obtained from Invitrogen.
(§8) Cells were grown in 12-well plates (Corning, Coring, N.Y.) to 90% confluence and then incubated in low-serum (0.1% FBS) media for 16-18 hr. […]
(§9) Lysate protein concentrations were determined by BCA Assay (Pierce, Rockford, Ill.) and 50 ug of each lysate was separated by 4-12% gradient SDS-PAGE (Invitrogen), transferred to nitrocellulose membrane (Biorad, Hercules, Calif.) and probed with specific antibodies. Phospho-protein signals were quantitated using Odyssey Infrared Imaging (Li-Cor Biosciences). […]

[4] = target: EGFR double mutation L858R/T790M (H1975 cells) (Homo sapiens (Human), UniProt P00533, L858R/T790M); assay: Phospho-EGFR signaling (immunoblotting, 1 hr) in H1975 cells; assay type: cell-based; conditions: for EC50: H1975 cells, 1 hr compound, phospho-EGFR (Y1068); for Ratio WT/mutant (H1975): signaling EC50, WT EGFR (A431) vs H1975
Protocol: as §6, §7
Cells were grown in 12-well plates (Corning, Coring, N.Y.) to 90% confluence and then incubated in low-serum (0.1% FBS) media for 16-18 hr. Cells were then treated with 5, 1.25, 0.31, 0.078, 0.020 or 0.005 μM test compound in low-serum (0.1% FBS) media for 1 hr. A431 cells were then stimulated with 50 ng/ml EGF (Peprotech, Rocky Hill, N.J.) for 15 min. After treatment, cell monolayers were washed with cold PBS (Invitrogen) and immediately lysed by scrapping into 60 uL cold Cell Extraction Buffer (Invitrogen) supplemented with Complete Protease inhibitors (Roche, Indianapolis, Ind.) and PhosphoSTOP (Roche) phosphatase inhibitors.
Lysate protein concentrations were determined by BCA Assay (Pierce, Rockford, Ill.) and 50 ug of each lysate was separated by 4-12% gradient SDS-PAGE (Invitrogen), transferred to nitrocellulose membrane (Biorad, Hercules, Calif.) and probed with specific antibodies. Phospho-protein signals were quantitated using Odyssey Infrared Imaging (Li-Cor Biosciences).
To assess phosphor-EGFR signaling, blots were probed with rabbit anti-Phospho-EGFR (Y1068) and mouse total anti-EGFR antibodies. Phospho-EGFR signal was normalized to total EGFR expression for each sample. Results are indicated as % DMSO control. Normalized data was fitted using a sigmoidal curve analysis program (Graph Pad Prism version 5) with variable Hill slope to determine the EC50 values.
The compound numbers recited in Table 3 correspond to the compound numbers in Table 1.

[5] = target: EGFR delE746-A750 mutation (HCC827 cells) (Homo sapiens (Human), UniProt P00533, DEL746-750); assay: Phospho-EGFR signaling (immunoblotting, 1 hr) in HCC827 cells; assay type: cell-based
Protocol: as §6, §7, §8, §9

[6] = tested on: WT-EGFR A431 cells; assay: Cell proliferation (CellTiter Glo, 72 hr) in A431 cells; assay type: cell-based; conditions: Homo sapiens, A-431
Protocol: as §6
(§10) Cells were plated in Growth Media supplemented with 5% FBS and 1% P/S at a density of 3,000 cells per well in 96 well tissue culture plates (Corning). Cells were allowed to settle down for 4 hr and then treated with 5, 1.25, 0.31, 0.078, 0.020 or 0.005 μM test compound for 72 hr. Cell viability was determined by CellTiter Glo (Promega, Madison, Wis.) and results were converted to cell numbers using a standard curve. Growth inhibition (GI50) values were determined by Graph Pad Prism.

[7] = tested on: H1975 (double mutation L858R/T790M) cells; assay: Cell proliferation (CellTiter Glo, 72 hr) in H1975 cells; assay type: cell-based, human; conditions: for GI50: Homo sapiens, NCI-H1975, H1975 cells, 72 hr; for Ratio WT/mutant (H1975): proliferation GI50, WT EGFR (A431) vs H1975
Protocol: as §6, §10

[8] = tested on: HCC827 (delE746-A750 deletion mutation) cells; assay: Cell proliferation (CellTiter Glo, 72 hr) in HCC827 cells; assay type: cell-based, human; conditions: for GI50: Homo sapiens, HCC827 cells, 72 hr; for Ratio WT/mutant (HCC827): proliferation GI50, WT EGFR (A431) vs HCC827
Protocol: as §6, §10

[9] = tested on: H1975 tumor; assay: H1975 tumor in vivo study; parameters: species or system nu/nu mice
Protocol: Female nu/nu mice were implanted with 1×10^7H1975 tumor cells in 50% Matrigel subcutaneously (0.2 ml injection volume) in the flank. Tumor measurements were recorded three times per week. Tumors were pair matched when they reached an average size of 100-150 mg. Group size was 10 mice. Test compound was administered intraperitoneal, 25 mg/kg or 50 mg/kg daily for 21 days. % Tumor inhibition was determined at 15 days and 18 days. Tumor volume was followed until tumors reached 1500 mm^3 or 60 days. Tumor inhibition value for I-1 was >80% for 25 mg/kg at both 15 and 18 days, and >90% for 50 mg/kg at both 15 and 18 days.

SMILES	IC50 [1]	IC50 [2]	Ratio WT/mutant [2]	EC50 [3]	EC50 [4]	Ratio WT/mutant (H1975) [4]	EC50 ([5]; HCC827 cells, 1 hr compound, phospho-EGFR (Y1068))	Ratio WT/mutant (HCC827) ([5]; signaling EC50, WT EGFR (A431) vs HCC827)	GI50 [6]	GI50 [7]	GI50 [8]	Ratio WT/mutant (H1975) [7]	Ratio WT/mutant (HCC827) [8]	Tumor inhibition value ([9]; 25 mg/kg intraperitoneal daily, at 15 days)	Tumor inhibition value ([9]; 25 mg/kg intraperitoneal daily, at 18 days)	Tumor inhibition value ([9]; 50 mg/kg intraperitoneal daily, at 15 days)	Tumor inhibition value ([9]; 50 mg/kg intraperitoneal daily, at 18 days)
C=CC(=O)Nc1cccc(Oc2nc(Nc3ccc(NC(C)C)cc3OC)ncc2Cl)c1 [Compound I-4, N-(3-(5-chloro-2-(4-(isopropylamino)-2-methoxyphenylamino)pyrimidin-4-yloxy)phenyl)acrylamide]	30 to 100 nM	1 to 10 nM	>25	–	–	–	–	–	> 1000 nM	500 to 1000 nM	100 to 500 nM	>1	>35	–	–	–	–
C=CC(=O)Nc1cccc(Nc2nc(Nc3ccc(NC(C)C)cc3OC)ncc2C(F)(F)F)c1 [Compound I-5, N-(3-(2-(4-(isopropylamino)-2-methoxyphenylamino)-5-(trifluoromethyl)pyrimidin-4-ylamino)phenyl)acrylamide]	10 to 30 nM	< 1 nM	>20	–	–	–	–	–	500 to 1000 nM	100 to 500 nM	100 to 500 nM	>1	>5	–	–	–	–

Now from value to compound, other results behind:

IC50 [1]	IC50 [2]	Ratio WT/mutant [2]	EC50 [3]	EC50 [4]	Ratio WT/mutant (H1975) [4]	EC50 ([5]; HCC827 cells, 1 hr compound, phospho-EGFR (Y1068))	Ratio WT/mutant (HCC827) ([5]; signaling EC50, WT EGFR (A431) vs HCC827)	GI50 [6]	GI50 [7]	GI50 [8]	SMILES	Ratio WT/mutant (H1975) [7]	Ratio WT/mutant (HCC827) [8]	Tumor inhibition value ([9]; 25 mg/kg intraperitoneal daily, at 15 days)	Tumor inhibition value ([9]; 25 mg/kg intraperitoneal daily, at 18 days)	Tumor inhibition value ([9]; 50 mg/kg intraperitoneal daily, at 15 days)	Tumor inhibition value ([9]; 50 mg/kg intraperitoneal daily, at 18 days)
1 to 10 nM	< 1 nM	>1	> 1000 nM	10 to 100 nM	>35	100 to 500 nM	>10	500 to 1000 nM	10 to 100 nM	10 to 100 nM	C=CC(=O)Nc1cccc(Nc2nc(Nc3ccc(NC4CN(CCF)C4)cc3OC)ncc2C(F)(F)F)c1 [Compound I-1, N-(3-(2-(4-(1-(2-fluoroethyl)azetidin-3-ylamino)-2-methoxyphenylamino)-5-(trifluoromethyl)pyrimidin-4-ylamino)phenyl)acrylamide]	>10	>10	> 80%	> 80%	> 90%	> 90%
1 to 10 nM	< 1 nM	>15	–	–	–	–	–	> 1000 nM	100 to 500 nM	100 to 500 nM	C=CC(=O)Nc1cccc(Nc2nc(Nc3ccc(NC4CN(C(C)=O)C4)cc3OC)ncc2C(F)(F)F)c1 [Compound I-2, N-(3-(2-(4-(1-acetylazetidin-3-ylamino)-2-methoxyphenylamino)-5-(trifluoromethyl)pyrimidin-4-ylamino)phenyl)acrylamide]	>5	>15	–	–	–	–
100 to 300 nM	1 to 10 nM	>50	> 1000 nM	100 to 500 nM	>10	–	–	> 1000 nM	100 to 500 nM	10 to 100 nM	C=CC(=O)Nc1cccc(Nc2nc(Nc3ccc(NC4CN(C(=O)OC(C)(C)C)C4)cc3OC)ncc2C(F)(F)F)c1 [Compound I-3, tert-butyl 3-(4-(4-(3-acrylamidophenylamino)-5-(trifluoromethyl)pyrimidin-2-ylamino)-3-methoxyphenylamino)azetidine-1-carboxylate]	>5	>20	–	–	–	–
